Molecular target: T1, Human CB2 receptors (Homo sapiens, UniProt P34972)
T1 construct: expressed in transfected cells; host or cells: CHO cells
Assay: In vitro signaling assay: inhibition of forskolin-induced cAMP production in human CB2 receptor expressing CHO cells
Format: cell-based
Details: inhibition of 10 μM forskolin-induced cAMP production, human CB2 receptors expressed CHO cells, cAMP EIA
Method: It was confirmed by the following experiment that the compound of formula (I) of the present invention has CB2 receptor agonist activity.
Method for the Experiment:
Human CB2 receptors expressed CHO cells were used for the assays. Cells were dispersed seeded in 96-well plates in a density of 5×10^4 cells/well, and were subjected to experiment the next day. After removing the culture media 1 mM isobutylmethylxanthine (IBMX) solution was added, and cells were incubated for 10 minutes at room temperature. Next, a mixture of 10 μM forskolin and the compound of the present invention was added. After additional incubation for 15 minutes at room temperature, the culture supernatant was discarded and 200 μl of lysis reagent (attached to a cAMP EIA) was added. The amounts of cAMP of the lysate were determined by a cAMP EIA kit (Amersham) under conditions of the forskolin-induced cAMP production. The compound of the present invention was dissolved in DMSO and the solution was diluted to adjust the final concentration of DMSO to 0.1%. IC50 values were calculated from the inhibitory ratio of the compound of the present invention toward the amount of the forskolin-induced cAMP production. By the same experiment using CHO cells, it was confirmed that this inhibitory effect toward cAMP production by the compound was mediated via the human CB2 receptors.

T1 sequence (P34972 whole entry): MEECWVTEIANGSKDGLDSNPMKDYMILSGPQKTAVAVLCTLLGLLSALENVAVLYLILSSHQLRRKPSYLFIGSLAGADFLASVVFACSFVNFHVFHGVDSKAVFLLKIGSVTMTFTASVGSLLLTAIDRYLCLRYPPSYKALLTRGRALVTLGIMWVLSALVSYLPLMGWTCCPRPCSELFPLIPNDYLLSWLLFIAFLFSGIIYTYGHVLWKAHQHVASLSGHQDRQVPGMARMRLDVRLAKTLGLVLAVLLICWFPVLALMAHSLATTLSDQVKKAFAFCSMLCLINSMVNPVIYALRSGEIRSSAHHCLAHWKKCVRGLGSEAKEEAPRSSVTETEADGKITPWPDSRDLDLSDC

IC50 [nM]	Compound
2.4	CC1(C)Cc2ccccc2/C(=C/C(=O)C2CCCCC2)N1 [compound 1]
0.4	CC1(C)Cc2ccccc2/C(=C/C(=O)C2CCCCCC2)N1 [1(11), (Z)-2-(3,3-dimethyl-3,4-dihydro-(2H)-isoquinolin-1-ylidene)-1-cycloheptylethan-1-one]
0.8	O=C(/C=C1\NC2(CCOCC2)Cc2ccccc21)c1ccccc1 [1(33), (Z)-2-(spiro[3,4-dihydro-(2H)-isoquinolin-3,4′-3,4,5,6-tetrahydropyran]-1-ylidene)-1-phenylethan-1-one]

Reference: patent publication US6956033B2, “3,4-dihydroisoquinoline derivative compound and a pharmaceutical agent comprising it as active ingredient” (Ono Pharmaceutical Co., Ltd., priority 2000, dated 2005)
